The values that follow come from patent publication US20250360108A1, “CATALYTIC INHIBITOR OF PROTEIN PHOSPHATASE 5 ACTIVATES THE EXTRINSIC APOPTOTIC PATHWAY BY DISRUPTING COMPLEX II” (The Research Foundation for the State University of New York, priority 2022, published 2025).

One test has as its system S194-FADD. Briefly: Phosphorylation of S194-FADD by immunoblot after IC261. As to conditions: 786-O and A498 cells, indicated amounts, 24 hrs. It is filed as cell-based, human. As for the experimental part: Method Details Cell Transfection and Treatment: Cultured cells were split and then transfected the following day when about 40% confluent with each construct using Mirus TranslT-2020 (MirusBio) according to manufacturer's protocol. Cells were incubated at 37° C. and then extracted or collected for analysis after 24 hrs (HEK293) or 72 hrs (ccRCC cell lines). Short interfering RNA (siRNA) scramble control and PPP5C (PP5) targeting duplexes were purchased from OriGene (SKU: SR321403A, SR321403B, and SR321403C). Indicated cells were transiently transfected with the siRNA using Mirus TranslT-2020. For PP5 knock-down, either 30 nM of control siRNA or 10 nM of each PP5 siRNA duplex (A, B and C) were mixed prior to transfection. […]
Protein Extraction, Immunoprecipitation and Immunoblotting: Protein extraction from mammalian cells was carried out using methods previously described. Cell lysates were quantified using 1× Bradford reagent (Biorad). […] Co-immunoprecipitated proteins or proteins from cell lysate were detected with antibodies recognizing FLAG, 6×-His (ThermoFisher Scientific), GAPDH (ENZO Life Sciences), Cdc37 (StressMarq), GR, phospho-GR (S211), PP5, caspase-3, cleaved caspase-3, caspase-8, cleaved caspase-8, cleaved caspase-7, cleaved-PARP, phospho-RIPK1 (S166), phospho-FADD (S194), PP2A-C, VHL (Cell Signaling), phospho-RIPK1 (S161) (Invitrogen), PP5 and phospho-Cdc37 (S13) (Abcam). […]
For orientation: In western blotting, separated proteins are transferred to a membrane and probed.

The test system of the next test is 786-O cells. Briefly: Induction of apoptosis by immunoblotting of apoptotic markers. Type of test: cell-based, human. The protocol: Method Details Cell Transfection and Treatment: Cultured cells were split and then transfected the following day when about 40% confluent with each construct using Mirus TranslT-2020 (MirusBio) according to manufacturer's protocol. Cells were incubated at 37° C. and then extracted or collected for analysis after 24 hrs (HEK293) or 72 hrs (ccRCC cell lines). Short interfering RNA (siRNA) scramble control and PPP5C (PP5) targeting duplexes were purchased from OriGene (SKU: SR321403A, SR321403B, and SR321403C). Indicated cells were transiently transfected with the siRNA using Mirus TranslT-2020. For PP5 knock-down, either 30 nM of control siRNA or 10 nM of each PP5 siRNA duplex (A, B and C) were mixed prior to transfection. Cells were incubated at 37° C. for 72 hrs, then harvested for protein extraction. […] Cells were then harvested for protein extraction.
Protein Extraction, Immunoprecipitation and Immunoblotting: Protein extraction from mammalian cells was carried out using methods previously described. Cell lysates were quantified using 1× Bradford reagent (Biorad). For immunoprecipitation, cell lysates were incubated with anti-FLAG antibody conjugated beads (Sigma) or anti-HA conjugated beads (ThermoFisher Scientific) at 4° C. for 2 hrs. Endogenous IPs were achieved by incubating lysate with anti-PP5 antibody (Cell Signaling), anti-FADD antibody (Cell Signaling), or anti-RIPK1 antibody (Cell Signaling) overnight followed by protein G agarose (Invitrogen) at 4° C. for 2 hrs. Immunopellets were washed 4 times with fresh lysis buffer (20 mM Tris-HCl (pH 7.4), 100 mM NaCl, 1 mM MgCl2, 0.1% NP40, protease inhibitor cocktail (Roche), and PhosSTOP (Roche)) and eluted in 5× Laemmli buffer. Precipitated proteins were separated by SDS-PAGE and transferred to nitrocellulose membranes. Co-immunoprecipitated proteins or proteins from cell lysate were detected with antibodies recognizing FLAG, 6×-His (ThermoFisher Scientific), GAPDH (ENZO Life Sciences), Cdc37 (StressMarq), GR, phospho-GR (S211), PP5, caspase-3, cleaved caspase-3, caspase-8, cleaved caspase-8, cleaved caspase-7, cleaved-PARP, phospho-RIPK1 (S166), phospho-FADD (S194), PP2A-C, VHL (Cell Signaling), phospho-RIPK1 (S161) (Invitrogen), PP5 and phospho-Cdc37 (S13) (Abcam). Secondary antibodies raised against mouse and rabbit (Cell Signaling) were used (See Key Resources Table).

The next test concerns VHL-null ccRCC cells. Briefly: Flow cytometric cell death by propidium iodide staining. It is filed as cell-based, human. As to conditions: 30 or 40 μM; A498 and 786-O versus Caki-1 and Caki-2. As for the experimental part: Flow Cytometric Analysis: Fluorescence-activated cell sorting (FACS) analysis was performed according to the protocol in the Annexin V:FITC kit (Bio-Rad). In brief, cells were plated in 10 cm dish at 0.5×10^6 and incubated at 37° C. for 18 hrs. […] Cells were trypsinized, collected and washed once with 1× binding buffer (included in the kit). Propidium iodide was added, then the cells were immediately run on a Becton Dickinson LSRFortessa instrument (BD Biosciences). Data were analyzed using FlowJo software version 10.7.1 for Windows (BD Biosciences).
(Flow cytometry measures light scatter and fluorescence of single cells or particles in a stream.)

Another test addresses T1, PP5 (Homo sapiens, UniProt P53041).
T1 sequence (P53041 1-499): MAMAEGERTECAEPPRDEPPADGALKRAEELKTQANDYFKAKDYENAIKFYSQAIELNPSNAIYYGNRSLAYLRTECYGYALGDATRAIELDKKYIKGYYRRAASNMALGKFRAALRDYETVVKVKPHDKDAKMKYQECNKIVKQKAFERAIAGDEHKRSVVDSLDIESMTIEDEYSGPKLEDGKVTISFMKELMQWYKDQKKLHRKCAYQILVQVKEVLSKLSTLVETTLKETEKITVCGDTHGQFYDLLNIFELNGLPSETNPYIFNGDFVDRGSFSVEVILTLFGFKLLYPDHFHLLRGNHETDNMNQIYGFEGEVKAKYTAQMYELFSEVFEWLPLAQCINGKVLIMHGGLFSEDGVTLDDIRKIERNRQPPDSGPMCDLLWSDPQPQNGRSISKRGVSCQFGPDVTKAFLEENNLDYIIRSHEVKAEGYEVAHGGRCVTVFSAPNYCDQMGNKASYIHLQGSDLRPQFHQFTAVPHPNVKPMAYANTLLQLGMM
As to conditions: cited from earlier work.

The next test has as its system PP1. The following applies: cited from earlier work.

In the case of `COc1cc(OC)c(C=C2C(O)=Nc3ccccc32)c(OC)c1` [IC261, reference compound], the S194-FADD phosphorylation result in the test on S194-FADD is reported as “increase in S194-FADD phosphorylation”. The “induction of extrinsic apoptosis (apoptotic markers)” value in the test with 786-O cells (indicated amounts, 16 hrs) was “induced extrinsic apoptosis in a dose-dependent manner”.

`Cc1noc(C)c1S(=O)(=O)Nc1ccc(Cc2ccccc2)cc1` [Compound P053, (3,5-Dimethyl-4-isoxazolylsulfonyl)(p-benzylphenyl)amine]: the “cell death (PI staining)” value in the test with VHL-null ccRCC cells was “selectively caused cell death”. For the same molecule, in the test with 786-O cells (10 μM, 24 hrs), the “cleavage of caspase 3 and PARP” value is on record as “increased cleavage”; the “cleavage of caspase 8 versus caspase 9 (extrinsic apoptosis)” value is “cleavage of caspase 8 but not caspase 9”; the “induction of apoptosis (cleaved PARP, cleaved caspase 8)” value is given as “had the ability to induce apoptosis”.

Regarding `CN1CCN(C(=O)C2C(C(=O)O)[C@H]3CC[C@@H]2O3)CC1` (some centres unmarked) [LB-100], on PP5, the “inhibition of PP5” value is “inhibit”. Further, the “inhibition of PP1” value in the test on PP1 is “inhibit”.
